Test results from US8933018B2, “Boron containing polybasic bacterial efflux pump inhibitors and therapeutic uses thereof” (priority 2011, dated 2015).
Read-outs that look alike come from different tables or passages of the source.

What was measured:
[1] = system: P. aeruginosa, PAM1723, overexpressing the MexAB-OprM efflux pump; type: cell-based, Pseudomonas aeruginosa; conditions: lowest EPI concentration giving antibacterial activity with levofloxacin at 1/8 of its MIC, MHB, 20 h at 35° C.
Method in brief: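 Checkerboard microdilution in Mueller Hinton Broth, with EPI concentrations varied along one axis. The inoculum was 5 times 10^5 CFU/ml from early-log culture. Plates were incubated 20 h at 35° C, and growth was read at 650 nm and by visual inspection.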

[2] = system: P. aeruginosa PAM3062, which overexpresses the MexAB-OprM efflux pump; type: in vivo, Pseudomonas aeruginosa; conditions: neutropenic rats, lung, 1.5 hr IV infusion, 24 hours after start of treatment
Protocol: Rats are made neutropenic by administration of a 75 mg/kg dose of cyclophosphamide 2 days prior to infection. Immediately prior to infection, rats are anesthetized with isoflurane. Lung infection is established by intratracheal instillation of ˜1×10^7 CFU/lung. P. aeruginosa PAM3062, which overexpresses the MexAB-OprM efflux pump, is used for infection. All treatments are initiated 4 hours after infection and are administered by 1.5 hr IV infusion twice daily. Rats are sacrificed 24 hours after the start of treatment; lungs are homogenized, serially diluted, and plated to determine colony counts.

SMILES	MPC8 (Minimum Potentiating Concentration) [1]	also measured
CC1(C)OB(O)c2cc(NC(=O)[C@@H](Cc3ccc(C(F)(F)F)cc3)NC(=O)[C@@H](N)CCC(=O)N(CCN)CCN)ccc21 [Compound 20, (S)-2-Amino-N5,N5-bis(2-aminoethyl)-N1-((R)-1-(1-hydroxy-3,3-dimethyl-1,3-dihydrobenzo[c][1,2]oxaborol-6-ylamino)-1-oxo-3-(4-(trifluoromethyl)phenyl)propan-2-yl)pentanediamide]	A (A = MPC8 of less than 2.5 μg/mL.)	Δlog CFU ([2]; levofloxacin 100 (50 BID) mg/kg + EPI 10 (5 BID) mg/kg 24 hr dose): −1.75
NCCN(CCN)C(=O)CC[C@H](N)C(=O)N[C@H](Cc1ccc(C(F)(F)F)cc1)C(=O)Nc1cccc(B(O)O)c1 [Compound 2]	B (B = MPC8 of 2.5 μg/ml to less than 10 μg/mL.)	Δlog CFU ([2]; levofloxacin 100 (50 BID) mg/kg + EPI 40 (20 BID) mg/kg 24 hr dose): −1.74
NCCN(CCN)C(=O)CC[C@H](N)C(=O)N[C@H](CCc1ccc(C(F)(F)F)cc1)C(=O)Nc1ccc2c(c1)B(O)OC2 [Compound 6, (S)-2-amino-N5,N5-bis(2-aminoethyl)-N1-((R)-1-(1-hydroxy-1,3-dihydrobenzo[c][1,2]oxaborol-6-ylamino)-1-oxo-4-(4-(trifluoromethyl)phenyl)butan-2-yl)pentanediamide]	B (B = MPC8 of 2.5 μg/ml to less than 10 μg/mL.)	Δlog CFU ([2]; levofloxacin 100 (50 BID) mg/kg + EPI 16 (8 BID) mg/kg 24 hr dose): −2.99
NCCN(CCN)C(=O)CC[C@H](N)C(=O)N[C@H](CCc1ccc(C(F)(F)F)cc1)C(=O)Nc1cc(F)cc(B(O)O)c1 [Compound 33, 3-((R)-2-((S)-2-amino-5-(bis(2-aminoethyl)amino)-5-oxopentanamido)-4-(4-(trifluoromethyl)phenyl)butanamido)-5-fluorophenylboronic acid]	A (A = MPC8 of less than 2.5 μg/mL.)	–
CC1(C)OB(O)c2cc(NC(=O)[C@@H](CCc3ccc(C(F)(F)F)cc3)NC(=O)[C@@H](N)CCC(=O)N(CCN)CCN)ccc21 [Compound 26, (S)-2-amino-N5,N5-bis(2-aminoethyl)-N1-((R)-1-(1-hydroxy-3,3-dimethyl-1,3-dihydrobenzo[c][1,2]oxaborol-6-ylamino)-1-oxo-4-(4-(trifluoromethyl)phenyl)butan-2-yl)pentanediamide]	A (A = MPC8 of less than 2.5 μg/mL.)	–
NCCN(CCN)C(=O)CC[C@H](N)C(=O)N[C@H](Cc1ccc(C(F)(F)F)cc1)C(=O)NCc1ccc(B(O)O)cc1 [Compound 3, 4-(((R)-2-((S)-2-amino-5-(bis(2-aminoethyl)amino)-5-oxopentanamido)-3-(4-(trifluoromethyl)phenyl)propanamido)methyl)phenylboronic acid]	C (C = MPC8 of 10 μg/mL or greater.)	–
CC1(C)OB(O)c2cc(NC(=O)[C@@H](CCc3ccc(C(F)(F)F)cc3)NC(=O)[C@@H](N)CCC(=O)N(C[C@@H](O)CN)C[C@@H](O)CN)ccc21 [Compound 40, (S)-2-amino-N^5,N^5-bis((S)-3-amino-2-hydroxypropyl)-N^1-((R)-1-(1-hydroxy-3,3-dimethyl-1,3-dihydrobenzo[c][1,2]oxaborol-6-ylamino)-1-oxo-4-(4-(trifluoromethyl)phenyl)butan-2-yl)pentanediamide]	B (B = MPC8 of 2.5 μg/ml to less than 10 μg/mL.)	–
NCCN(CCN)C(=O)CC[C@H](N)C(=O)N[C@H](Cc1ccc(C(F)(F)F)cc1)C(=O)Nc1cc(B(O)O)cc(C(F)(F)F)c1 [Compound 15, 3-((R)-2-((S)-2-amino-5-(bis(2-aminoethyl)amino)-5-oxopentanamido)-3-(4-(trifluoromethyl)phenyl)propanamido)-5-(trifluoromethyl)phenylboronic acid]	B (B = MPC8 of 2.5 μg/ml to less than 10 μg/mL.)	–
NCCN(CCN)C(=O)CC[C@H](N)C(=O)N[C@H](CCc1ccc(C(F)(F)F)cc1)C(=O)Nc1cc(F)c(F)c(B(O)O)c1 [Compound 34, 5-((R)-2-((S)-2-amino-5-(bis(2-aminoethyl)amino)-5-oxopentanamido)-4-(4-(trifluoromethyl)phenyl)butanamido)-2,3-difluorophenylboronic acid]	C (C = MPC8 of 10 μg/mL or greater.)	–
NCCN(CCN)C(=O)CC[C@H](N)C(=O)N[C@H](CCc1ccc(C(F)(F)F)cc1)C(=O)Nc1cccc(B(O)O)c1 [Compound 14, 3-((R)-2-((S)-2-amino-5-(bis(2-aminoethyl)amino)-5-oxopentanamido)-4-(4-(trifluoromethyl)phenyl)butanamido)phenylboronic acid]	B (B = MPC8 of 2.5 μg/ml to less than 10 μg/mL.)	Δlog CFU ([2]; levofloxacin 100 (50 BID) mg/kg + EPI 20 (10 BID) mg/kg 24 hr dose): −1.13
NCCN(CCN)C(=O)CC[C@H](N)C(=O)N[C@H](Cc1ccc(C(F)(F)F)cc1)C(=O)Nc1ccc2c(c1)B(O)OC2 [Compound 1, (S)-2-amino-N5,N5-bis(2-aminoethyl)-N1-((R)-1-(1-hydroxy-1,3-dihydrobenzo[c][1,2]oxaborol-6-ylamino)-1-oxo-3-(4-(trifluoromethyl)phenyl)propan-2-yl)pentanediamide]	C (C = MPC8 of 10 μg/mL or greater.)	–
CC1(C)OB(O)c2cc(NC(=O)[C@@H](CCc3ccc(C(F)(F)F)cc3)NC(=O)[C@@H](N)CCC(=O)N3C[C@@H](N)C[C@H]3CN)ccc21 [Compound 41, (S)-2-amino-5-((2S,4S)-4-amino-2-(aminomethyl)pyrrolidin-1-yl)-N-((R)-1-(1-hydroxy-3,3-dimethyl-1,3-dihydrobenzo[c][1,2]oxaborol-6-ylamino)-1-oxo-4-(4-(trifluoromethyl)phenyl)butan-2-yl)-5-oxopentanamide]	B (B = MPC8 of 2.5 μg/ml to less than 10 μg/mL.)	–
CC1(C)OB(O)c2ccc(NC(=O)[C@@H](COc3ccc(C(F)(F)F)cc3)NC(=O)[C@@H](N)CCC(=O)NC(CN)CN)cc21 [Compound 97, (S)-2-amino-N^5-(1,3-diaminopropan-2-yl)-N^1-((R)-1-(1-hydroxy-3,3-dimethyl-1,3-dihydrobenzo[c][1,2]oxaborol-5-ylamino)-1-oxo-3-(4-(trifluoromethyl)phenoxy)propan-2-yl)pentanediamide]	B (B = MPC8 of 2.5 μg/ml to less than 10 μg/mL.)	–
CC1(C)OB(O)c2cc(NC(=O)[C@@H](Cc3ccc(C(F)(F)F)cc3)NC(=O)[C@@H](N)CCC(=O)N3C[C@H](N)C[C@H](N)C3)ccc21 [Compound 67, (S)-2-amino-5-((3R,5S)-3,5-diaminopiperidin-1-yl)-N-((R)-1-(1-hydroxy-3,3-dimethyl-1,3-dihydrobenzo[c][1,2]oxaborol-6-ylamino)-1-oxo-3-(4-(trifluoromethyl)phenyl)propan-2-yl)-5-oxopentanamide]	B (B = MPC8 of 2.5 μg/ml to less than 10 μg/mL.)	–
NCCN(CCN)C(=O)C[C@H](N)C(=O)N[C@H](C(=O)Nc1ccc2c(c1)B(O)OC2)[C@H](O)c1ccc(C(F)(F)F)cc1 [Compound 4, (S)-2-amino-N4,N4-bis(2-aminoethyl)-N1-((1R,2S)-1-hydroxy-3-(1-hydroxy-1,3-dihydrobenzo[c][1,2]oxaborol-6-ylamino)-3-oxo-1-(4-(trifluoromethyl)phenyl)propan-2-yl)succinamide]	C (C = MPC8 of 10 μg/mL or greater.)	–
CC1(C)OB(O)c2cc(NC(=O)[C@@H](CCc3ccc(C(F)(F)F)cc3)NC(=O)[C@@H](N)CCC(=O)N3C4CCC3[C@H](CN)[C@@H]4CN)ccc21 [Compound 42, (2S)-2-amino-5-((2R,3S)-2,3-bis(aminomethyl)-7-azabicyclo[2.2.1]heptan-7-yl)-N-((R)-1-(1-hydroxy-3,3-dimethyl-1,3-dihydrobenzo[c][1,2]oxaborol-6-ylamino)-1-oxo-4-(4-(trifluoromethyl)phenyl)butan-2-yl)-5-oxopentanamide]	A (A = MPC8 of less than 2.5 μg/mL.)	–
